Experimental findings from patent publication US20220386611A1, “NOVEL HETEROARYL-TRIAZOLE COMPOUNDS AS PESTICIDES” (Bayer Aktiengesellschaft, priority 2019, published 2022) are described below.

What all share (assay type): in vivo
Assay [1] relates to Rhipicephalus microplus larvae (strain Parkhurst, resistant against synthetic pyrethroids). Put plainly: Rhipicephalus (Boophilus) microplus in-vitro contact test, larval cattle tick. The note with it: 5 μg/cm^2 (=500 g/ha), after 48 hours, read-out: efficacy (larvae dead or moribund). A digest of the protocol: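 Compound in acetone coated on glass tube inner walls; 900 ppm gives 5 μg/cm^2. Pyrethroid-resistant Parkhurst larvae (20-50 per tube) held at 27 °C, 85% relative humidity. Efficacy scored after 48 h from loss of negative geotaxis; 100% means all larvae dead or moribund.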

For assay [2], the system named is adult engorged female ticks (Rhipicephalus microplus). Put plainly: Rhipicephalus (Boophilus) microplus injection test. As to conditions: 168 h, 4 μg/animal, after 7 days, read-out: efficacy (infertile eggs). The essentials:
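Abdominal injection, 1 μL compound/DMSO, n=5 engorged adult females; climate-chamber incubation. Readout d7: fertile egg laying; doubtful eggs held to hatch (~42 d). % efficacy = infertile eggs (100% all infertile).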

The subject of assay [3] is larvae of the southern green stink bug (Nezara viridula). Put plainly: Nezara viridula spray test. As to conditions: 96 h, after 4 days, barley plants. The method, then:
Nezara viridula—Spray Test
Solvent: 78.0 parts by weight of acetone • • 1.5 parts by weight of dimethylformamide
(§1) Emulsifier: alkylarylpolyglycol ether
To produce a suitable preparation of active compound, 1 part by weight of active compound is mixed with the stated amount of solvent, and the concentrate is diluted with water, containing an emulsifier concentration of 1000 ppm, to the desired concentration. Further test concentrations are prepared by dilution with emulsifier containing water.
Barley plants (Hordeum vulgare) infested with larvae of the southern green stink bug (Nezara viridula) are sprayed with a test solution containing the desired concentration of the active ingredient.
After 4 days mortality in % is determined. 100% means all the stink bugs have been killed; 0% means none of the stink bugs have been killed.

Assay [4] relates to green peach aphid (Myzus persicae). Kind of assay: Myzus persicae oral test. The note with it: 120 h. The essentials: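 Compound in acetone was diluted with water, and 50 μL was mixed with 150 μL IPL41 insect medium (33% + 15% sugar). A mixed aphid population fed on this through a parafilm seal. Mortality % was scored after 5 days, where 100% means all aphids were killed.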
Assay [5] relates to Aedes aegypti strain MONHEIM. Kind of assay: Aedes aegypti test (AEDSAE surface treatment & contact assay). As to conditions: 24 hours after contact, read-out: efficacy (mortality). The essentials:
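Compound dissolved in acetone (2 mg/ml) with 2000 ppm rapeseed oil methyl ester, then dried onto a glazed tile. Adult A. aegypti (MONHEIM strain) exposed to the surface for 30 min. Percent mortality scored 24 h after contact.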

The test system of assay [6] is adult unfed cat fleas (Ctenocephalides felis). Put plainly: Ctenocephalides felis oral test. As to conditions: 48 h. The essentials: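 About 20 adult unfed fleas fed through parafilm on cattle blood containing compound (DMSO concentrate diluted in blood); blood held at 37° C., fleas at room temperature. Mortality in % scored after 2 days (100% = all killed).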
Assay [7] deals with green peach aphid (Myzus persicae). Put plainly: Myzus persicae spray test. The note with it: foliar, 120 h, after 5 days, Chinese cabbage leaf disks. The method, then:
Myzus persicae—spray test
Solvent: 78.0 parts by weight acetone • 1.5 parts by weight dimethylformamide
as §1
To produce a suitable preparation of active compound, 1 part by weight of active compound is mixed with the stated amount of solvents and is diluted with water, containing an emulsifier concentration of 1000 ppm, to the desired concentration. Further test concentrations are prepared by dilution with emulsifier containing water.
Chinese cabbage (Brassica pekinensis) leaf disks infected with all instars of the green peach aphid (Myzus persicae), are sprayed with a preparation of the active ingredient of the desired concentration.
After 5 days mortality in % is determined. 100% means all aphids have been killed and 0% means none of the aphids have been killed.

Assay [8] has as its system adult brown dog ticks (Rhipicephalus sanguineus). Kind of assay: Rhipicephalus sanguineus in-vitro contact test with adult brown dog ticks. The note with it: 5 μg/cm^2 (=500 g/ha), after 48 hours, read-out: efficacy (ticks dead or moribund). The essentials:
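Contact exposure: dried compound film inside glass tubes, dose 5 μg/cm^2 at 900 ppm, 5-10 adults per tube at room temperature. Scored at 48 h via a heat-escape test on a 45-50° C plate for up to 5 min.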

In assay [9] the test system is Anopheles funestus strain FUMOZ-R. Kind of assay: Anopheles funestus test (ANPHFU surface treatment & contact assay). As to conditions: surface concentration 20 mg/m^2, 30 minutes exposure, 24 hours after contact, read-out: efficacy (mortality). The method, then: Anopheles funestus Test (ANPHFU Surface Treatment & Contact Assay)
Solvent: Aceton+2000 ppm rapeseed oil methyl ester (RME)
In order to produce a sufficient, active ingredient containing solution it is necessary to solve the test compound in the solvent-mix (acetone at 2 mg/ml/RME 2000 ppm). This solution is pipetted onto a glazed tile and after evaporation of the acetone, adult mosquitoes of the species Anopheles funestus strain FUMOZ-R (Hunt et al., Med. Vet. Entomol. 2005 September; 19(3): 271-275) are placed onto the dried surface. The exposure time is 30 minutes. Mortality in percent (%) is determined 24 hours after contact of the insects to the treated surface. 100% mortality means that all tested insects are dead, whereas 0% means that no insect died.

In general, mortality refers to the share of the test organisms that died. Take `CC(NC(=O)c1cncc(C(F)(F)F)c1)c1nc(Cl)nn1-c1ncccn1` (stereo not shown) [Example I-007]: the pest or weed control at 5 µg/cm2 in assay [1] came to 100%. Besides, the pest or weed control at 0.004 mg in [2] was found to be 100%. The mortality at 100 g/ha in assay [3] and in assay [7] was 90% throughout. This molecule gave a mortality at 4 ppm in [4] of 90%. Also, the mortality at 4 mg/m2 in assay [5] (surface concentration 4 mg/m^2, 30 minutes exposure) was in the range of 80 to 100%. In addition, the mortality at 20 mg/m2 in [5] (surface concentration 20 mg/m^2, 30 minutes exposure) is 80 to 100%; in [9], 80 to 100%. The same molecule had a mortality at 100 ppm in assay [6] of 100%. Besides, in assay [8], the pest or weed control at 5 µg/cm2, 500 g/ha is 100%.
